Measured values published in patent US9376418B2, “Substituted pyridine spleen tyrosine kinase (SYK) inhibitors” (Merck Sharp & Dohme Corp., priority 2012, dated 2016).

Target: T1, recombinant human GST-SYK (Homo sapiens, UniProt P43405)
T1 construct: purchased Carna Biosciences 08-176
Assay: Homogeneous Time-Resolved Fluorescence (HTRF) assay for the recombinant human Syk enzyme
Type: biochemical
Details: HTRF assay, recombinant human GST-SYK; IC50 given as class symbols; read-out: rhSYK Activity
Procedure: Homogeneous Time-Resolved Fluorescence (HTRF) Assay for the Recombinant Human Syk Enzyme
A recombinant GST-hSYK fusion protein was used to measure potency of compounds to inhibit human Syk activity. The recombinant human GST-SYK (Carna Biosciences #08-176) ([…]) was incubated with various concentrations of the inhibitor diluted in DMSO (0.1% final concentration) for 10 minutes at room temperature in 15 mM Tris-HCl (pH 7.5), 0.01% tween 20, 2 mM DTT in 384 well plate format. To initiate the reaction the biotinylated substrate peptide (250 nM final concentration) that contains the phosphorylation site for Syk was added with magnesium (5 mM final concentration) and ATP (25 μM final concentration). Final volume of the reaction was 10 μL. Phosphorylation of the peptide was allowed to proceed for 45′ at room temperature. To quench the reaction and detect the phosphorylated product, 2 nM of a Europium-anti-phosphotyrosine antibody (Perkin Elmer #AD0161) and 70 nM SA-APC (Perkin-Elmer #CR130-100) were added together in 15 mM Tris pH 7.5, 40 mM EDTA, 0.01% tween 20. Final volume of the quenching solution was 10 μL. The resulting HTRF signal was measured after 30 minutes on an EnVision (Perkin-Elmer) reader using a time-resolved fluorescence protocol.

IC50 [nM] | SMILES
1000 to 10000 | CCOC(=O)CCc1cccc(-c2cccc(Nc3nccc(C(F)(F)F)n3)c2)n1 [Example 2.14, ethyl 3-[6-(3-{[4-(trifluoromethyl)pyrimidin-2-yl]amino}phenyl)pyridin-2-yl]propanoate]
< 100 | COc1ccnc(Nc2cc(C)cc(-c3cc(CCC(=O)O)ccn3)c2)n1 [Example 2.21, 3-(2-{3-[(4-methoxypyrimidin-2-yl)amino]-5-methylphenyl}pyridin-4-yl)propanoic acid]
< 100 | Cc1cc(Nc2nccc(C)n2)cc(-c2cc(CCC(=O)O)ccn2)c1 [Example 2.23, 3-(2-{3-methyl-5-[(4-methylpyrimidin-2-yl)amino]phenyl}pyridin-4-yl)propanoic acid]
< 100 | Cc1cc(Nc2nccc(C3CC3)n2)cc(-c2cc(CCC(=O)O)ccn2)c1 [Example 2.24, 3-(2-{3-[(4-cyclopropylpyrimidin-2-yl)amino]-5-methylphenyl}pyridin-4-yl)propanoic acid]
100 to 1000 | COc1ccnc(Nc2cc(C)cc(-c3ccc(CCC(=O)O)cn3)c2)n1 [Example 2.26, 3-(6-{3-[(4-methoxypyrimidin-2-yl)amino]-5-methylphenyl}pyridin-3-yl)propanoic acid]
< 100 | Cc1cc(Nc2nccc(C(F)(F)F)n2)cc(-c2cccc(CCC(=O)O)n2)c1 [Example 2.31, 3-[6-(3-methyl-5-{[4-(trifluoromethyl)pyrimidin-2-yl]amino}phenyl)pyridin-2-yl]propanoic acid]
1000 to 10000 | CCOC(=O)CCc1cccc(-c2cc(C)cc(Nc3nccc(C)n3)c2)n1 [Example 2.32, ethyl 3-(6-{3-methyl-5-[(4-methylpyrimidin-2-yl)amino]phenyl}pyridin-2-yl)propanoate]
100 to 1000 | CCOC(=O)CCc1ccnc(-c2cc(C)cc(Nc3nccc(C)n3)c2)c1 [Example 2.33, ethyl 3-(2-{3-methyl-5-[(4-methylpyrimidin-2-yl)amino]phenyl}pyridin-4-yl)propanoate]
100 to 1000 | Cc1cc(Nc2nccc(C)n2)cc(-c2ccc(CCC(=O)O)cn2)c1 [Example 2.34, 3-(6-{3-methyl-5-[(4-methylpyrimidin-2-yl)amino]phenyl}pyridin-3-yl)propanoic acid]
100 to 1000 | Cc1cc(Nc2nccc(C)n2)cc(-c2cccc(CCC(=O)O)n2)c1 [Example 2.35, 3-(6-{3-methyl-5-[(4-methylpyrimidin-2-yl)amino]phenyl}pyridin-2-yl)propanoic acid]
1000 to 10000 | CCOC(=O)CCc1ccc(-c2cc(C)cc(Nc3nccc(C)n3)c2)nc1 [Example 2.36, ethyl 3-(6-{3-methyl-5-[(4-methylpyrimidin-2-yl)amino]phenyl}pyridin-3-yl)propanoate]
100 to 1000 | CCOC(=O)CCc1ccc(-c2cc(C)cc(Nc3nccc(C4CC4)n3)c2)nc1 [Example 2.37, ethyl 3-(6-{3-[(4-cyclopropylpyrimidin-2-yl)amino]-5-methylphenyl}pyridin-3-yl)propanoate]
100 to 1000 | CCOC(=O)CCc1cccc(-c2cc(C)cc(Nc3nccc(C4CC4)n3)c2)n1 [Example 2.38, ethyl 3-(6-{3-[(4-cyclopropylpyrimidin-2-yl)amino]-5-methylphenyl}pyridin-2-yl)propanoate]
100 to 1000 | CCOC(=O)CCc1ccnc(-c2cc(C)cc(Nc3nccc(C4CC4)n3)c2)c1 [Example 2.39, ethyl 3-(2-{3-[(4-cyclopropylpyrimidin-2-yl)amino]-5-methylphenyl}pyridin-4-yl)propanoate]
< 100 | Cc1cc(Nc2nccc(C3CC3)n2)cc(-c2ccc(CCC(=O)O)cn2)c1 [Example 2.40, 3-(6-{3-[(4-cyclopropylpyrimidin-2-yl)amino]-5-methylphenyl}pyridin-3-yl)propanoic acid]

Continued, molecule first:

SMILES | IC50 [nM]
CCOC(=O)Cc1ccc(-c2cccc(Nc3nccc(C(F)(F)F)n3)c2)nc1 [Example 2.5, ethyl [6-(3-{[4-(trifluoromethyl)pyrimidin-2-yl]amino}phenyl)pyridin-3-yl]acetate] | 100 to 1000
CS(=O)(=O)c1ccc(-c2cccc(Nc3nccc(C(F)(F)F)n3)c2)nc1 [Example 2.6, N-{3-[5-(methylsulfonyl)pyridin-2-yl]phenyl}-4-(trifluoromethyl)pyrimidin-2-amine] | 100 to 1000
NC(=O)c1ccnc(-c2cccc(Nc3nccc(C(F)(F)F)n3)c2)c1 [Example 2.7, 2-(3-{[4-(trifluoromethyl)pyrimidin-2-yl]amino}phenyl)pyridine-4-carboxamide] | 100 to 1000
NC(=O)c1ccc(-c2cccc(Nc3nccc(C(F)(F)F)n3)c2)nc1 [Example 2.8, 6-(3-{[4-(trifluoromethyl)pyrimidin-2-yl]amino}phenyl)pyridine-3-carboxamide] | 100 to 1000
Cc1ccc(S(=O)(=O)Nc2ccc(-c3cccc(Nc4nccc(C(F)(F)F)n4)c3)nc2)cc1 [Example 2.9, 4-methyl-N-[6-(3-{[4-(trifluoromethyl)pyrimidin-2-yl]amino}phenyl)pyridin-3-yl]benzenesulfonamide] | 100 to 1000
Cc1cc(Nc2nccc(C(F)(F)F)n2)cc(-c2ccc(N)c(O)n2)c1 [Example 2.10, 3-amino-6-(3-methyl-5-{[4-(trifluoromethyl)pyrimidin-2-yl]amino}phenyl)pyridin-2-ol] | < 100
O=C(O)c1ccnc(-c2cccc(Nc3nccc(C(F)(F)F)n3)c2)c1 [Example 2.11, 2-(3-{[4-(trifluoromethyl)pyrimidin-2-yl]amino}phenyl)pyridine-4-carboxylic acid] | 100 to 1000
O=C(O)c1cccc(-c2cccc(Nc3nccc(C(F)(F)F)n3)c2)n1 [Example 2.12, 6-(3-{[4-(trifluoromethyl)pyrimidin-2-yl]amino}phenyl)pyridine-2-carboxylic acid] | 100 to 1000
Cc1cc(Nc2nccc(C(F)(F)F)n2)cc(-c2cccc(C(=O)O)n2)c1 [Example 2.13, 6-(3-methyl-5-{[4-(trifluoromethyl)pyrimidin-2-yl]amino}phenyl)pyridine-2-carboxylic acid] | < 100
O=C(O)CCc1ccc(-c2cccc(Nc3nccc(C(F)(F)F)n3)c2)nc1 [Example 2.16, 3-[6-(3-{[4-(trifluoromethyl)pyrimidin-2-yl]amino}phenyl)pyridin-3-yl]propanoic acid] | 100 to 1000
O=C(O)CCc1cccc(-c2cccc(Nc3nccc(C(F)(F)F)n3)c2)n1 [Example 2.17, 3-[6-(3-{[4-(trifluoromethyl)pyrimidin-2-yl]amino}phenyl)pyridin-2-yl]propanoic acid] | 100 to 1000
O=C(O)CCc1ccnc(-c2cccc(Nc3nccc(C(F)(F)F)n3)c2)c1 [Example 2.18, 3-[2-(3-{[4-(trifluoromethyl)pyrimidin-2-yl]amino}phenyl)pyridin-4-yl]propanoic acid] | 100 to 1000
Cc1cc(Nc2nccc(C(F)(F)F)n2)cc(-c2cc(CCC(=O)O)ccn2)c1 [Example 2.22, 3-[2-(3-methyl-5-{[4-(trifluoromethyl)pyrimidin-2-yl]amino}phenyl)pyridin-4-yl]propanoic acid] | < 100
Cc1cc(Nc2nccc(C(F)(F)F)n2)cc(-c2ccc(CCC(=O)O)cn2)c1 [Example 2.30, 3-[6-(3-methyl-5-{[4-(trifluoromethyl)pyrimidin-2-yl]amino}phenyl)pyridin-3-yl]propanoic acid] | < 100
COc1ccc(-c2cccc(Nc3nccc(C(F)(F)F)n3)c2)cn1 [Example 2.41, N-[3-(6-methoxypyridin-3-yl)phenyl]-4-(trifluoromethyl)pyrimidin-2-amine] | 100 to 1000
OC(c1ccccc1)c1ccc(-c2cccc(Nc3nccc(C(F)(F)F)n3)c2)cn1 (stereo not shown) [Example 2.42, phenyl[5-(3-{[4-(trifluoromethyl)pyrimidin-2-yl]amino}phenyl)pyridin-2-yl]methanol] | 100 to 1000
Oc1ccc(-c2cccc(Nc3nccc(C(F)(F)F)n3)c2)cn1 [Example 2.43, 5-(3-{[4-(trifluoromethyl)pyrimidin-2-yl]amino}phenyl)pyridin-2-ol] | 100 to 1000
O=c1[nH]c2cc(-c3cccc(Nc4nccc(C(F)(F)F)n4)c3)cnc2[nH]1 [Example 2.44, 6-(3-{[4-(trifluoromethyl)pyrimidin-2-yl]amino}phenyl)-1,3-dihydro-2H-imidazo[4,5-b]pyridin-2-one] | < 100
Cc1cc(Nc2nccc(C(F)(F)F)n2)cc(-c2cccnc2F)c1 [Example 2.45, N-[3-(2-fluoropyridin-3-yl)-5-methylphenyl]-4-(trifluoromethyl)pyrimidin-2-amine] | < 100
Cc1cc(Nc2nccc(C(F)(F)F)n2)cc(-c2ccc(C#N)nc2)c1 [Example 2.46, 5-(3-methyl-5-{[4-(trifluoromethyl)pyrimidin-2-yl]amino}phenyl)pyridine-2-carbonitrile] | < 100
Cc1cc(Nc2nccc(C(F)(F)F)n2)cc(-c2cnc3c(c2)CCN3)c1 [Example 2.47, N-[3-(2,3-dihydro-1H-pyrrolo[2,3-b]pyridin-5-yl)-5-methylphenyl]-4-(trifluoromethyl)pyrimidin-2-amine] | < 100
CC(=O)c1cncc(-c2cc(C)cc(Nc3nccc(C(F)(F)F)n3)c2)c1 [Example 2.48, 1-[5-(3-methyl-5-{[4-(trifluoromethyl)pyrimidin-2-yl]amino}phenyl)pyridin-3-yl]ethanone] | < 100
